As usually defined, the IC50 is the concentration at which inhibition is half-maximal. Broadly, the Cmax is the peak of the concentration-time curve. As a reminder, the Tmax is the time from dosing to the highest level. Broadly, the clearance is the rate of elimination divided by the concentration. Broadly, the half-life is the time in which the quantity being followed falls by half. Read a low half-life as rapid decline.

For one data set, the target named is T1, tau protein (Homo sapiens, UniProt P10636).
T1 construct: expressed in transfected cells
T1 sequence (P10636 2-441 isoform P10636-8 limits assumed): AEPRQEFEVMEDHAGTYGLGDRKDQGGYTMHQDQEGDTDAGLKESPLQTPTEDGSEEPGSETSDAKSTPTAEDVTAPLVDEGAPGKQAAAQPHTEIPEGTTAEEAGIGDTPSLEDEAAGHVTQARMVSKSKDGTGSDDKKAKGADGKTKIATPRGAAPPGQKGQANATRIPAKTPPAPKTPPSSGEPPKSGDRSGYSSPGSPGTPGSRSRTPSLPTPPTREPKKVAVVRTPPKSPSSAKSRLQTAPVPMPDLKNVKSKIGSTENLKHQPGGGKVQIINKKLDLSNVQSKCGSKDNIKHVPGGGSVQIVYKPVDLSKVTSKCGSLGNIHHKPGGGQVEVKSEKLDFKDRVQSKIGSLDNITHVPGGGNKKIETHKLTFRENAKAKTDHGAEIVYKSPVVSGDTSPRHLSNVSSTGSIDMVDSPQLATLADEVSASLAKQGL
As to the kind of experiment: Tau protein aggregation inhibition in tau-BiFC cell model. As to conditions: tau-BiFC cells treated together with Forskolin, 48 hours. It is filed as cell-based. As for the experimental part: (§1) In order to select new tau protein aggregation-inhibiting materials, tau-BiFC cell models, in which it is easy to observe the formation of tau oligomers in living cells, were used. […] After 48 hours, intracellular nuclei were stained using Hoechst (treatment concentration 2 μg/mL), and BiFC fluorescence intensity was automatically quantified using Operetta (PerkinElmer) to count stained nuclei in each well from the total well plates. […] Further, the degree of cytotoxicity induced by the newly synthesized compound is also based on the 100% survival rate of the group treated with Forskolin alone, and the cytotoxicity value of the compound was calculated by the equation “number of stained nuclei in the group treated with the compound/number of stained nuclei in the group treated with Forskolin x 100”.
(§2) In order to evaluate dose-dependent tau protein aggregation inhibition effects of the compounds selected according to Experimental Example 1, the selected compounds were treated in tau-BiFC cells at concentrations of 0.03 µM, […], 0.3 μM, 1 μM, 3 μM, 10 μM, and 30 μM, respectively, together with Forskolin (treatment concentration 30 µM) as a tau protein aggregation inducing material. After 48 hours, tau protein aggregation reaction and cytotoxicity degree were analyzed by observing cell images. The IC50 and toxicity of the compounds were analyzed by nonlinear regression analysis of prism software (Graph Pad).

In the next data set the test system is Tau-BiFC cells. The data set is described as follows: Cytotoxicity (cell survival rate) in tau-BiFC cells. As to conditions: group treated with Forskolin alone = 100%. As for the experimental part: as §1, §2
Data set [1] is described as follows: Pharmacokinetics in SD rat (plasma PK parameters). It is filed as in vivo. As for the experimental part:
Specifically, an SD rat of 7 to 8 weeks of age (Core Tech, Hana Trading Co., Ltd.) having a body weight of about 250 g to 300 g was purchased, and was managed in a simple breeding room for small animals set to a temperature of 22° C.±2° C., a relative humidity of 50%±5%, a lighting time of 12 hours (light up at 8:00 A.M., turn off at 8:00 P.M.), and an illuminance of 150 lux to 300 lux. During the entire test period, feed was freely provided, RO water was freely provided, and fasting was performed for 16 hours before the oral administration of a drug. After preparing a drug under the conditions shown in Table 5 below, the drug was intravenously injected (IV) or orally administered (PO). 500 µL of transfused blood was collected in a tube containing sodium heparin and centrifuged at 2° C. to 8° C. at 8,000 rpm for 6 minutes to obtain plasma from the blood. The obtained plasma was added to 180 μL of acetonitrile containing internal standard materials, vortexed, and then centrifuged at 15,000 rpm at 4° C. for 5 minutes to obtain a supernatant. The obtained supernatant was analyzed by LC-MS/MS.
Specific PK parameters were acquired using the Phoenix WinNonlin version 6.4 program (Phersight, USA) and wore calculated with a non-compartmental analysis model.

On tau protein, `Cc1nc(-c2ccc(NN=C(C#N)C#N)cc2)ncc1F` [Compound 3, (4-(5-fluoro-4-methylpyrimidin-2-yl)phenyl)carbonohydrazonoyl dicyanide] showed an IC50 of 2400 nM. In the data set on Tau-BiFC cells, the “Cell survival rate (% @ 10 μM)” value was 66%.
The like results for `CCc1ccnc(-c2ccc(NN=C(C#N)C#N)cc2)n1` [Compound 6, (4-(4-ethylpyrimidin-2-yl)phenyl)carbonohydrazonoyl dicyanide] were, in that order, 900 nM and 147.1%.
The like results for `N#CC(C#N)=NNc1ccc(-c2ccccn2)cc1` [Compound 10, (4-(pyridin-2-yl)phenyl)carbonohydrazonoyl dicyanide] were, in that order, 520 nM and 110.1%.
The molecule `N#CC(C#N)=NNc1ccc(-c2cncs2)cc1` [Compound 20, (4-(thiazol-5-yl)phenyl)carbonohydrazonoyl dicyanide] yielded an IC50 against tau protein of 600 nM. For the same molecule, the “Cell survival rate (% @ 10 μM)” value with Tau-BiFC cells turned out to be 90%.
Turning to `N#CC(C#N)=NNc1ccc(-c2ncccn2)cc1F` [Compound 38, (2-fluoro-4-(pyrimidin-2-yl)phenyl)carbonohydrazonoyl dicyanide], at tau protein, the half-inhibitory concentration (IC50) turned out to be 940 nM. For the same molecule, the “Cell survival rate (% @ 10 μM)” value in the data set with Tau-BiFC cells is on record as 88.9%.
The matching figures for `N#CC(C#N)=NNc1ccc(-c2ncccn2)c(F)c1` [Compound 39, (3-fluoro-4-(pyrimidin-2-yl)phenyl)carbonohydrazonoyl dicyanide]: 1510 nM and 89.8%.
The matching figures for `Cc1ccnc(-c2ccc(NN=C(C#N)C#N)cc2F)n1` [Compound 40, (3-fluoro-4-(4-methylpyrimidin-2-yl)phenyl)carbonohydrazonoyl dicyanide]: 2500 nM and 101.3%.
The like results for `COc1cc(-c2ncc(C)cn2)ccc1NN=C(C#N)C#N` [Compound 41, (2-methoxy-4-(5-methylpyrimidin-2-yl)phenyl)carbonohydrazonoyl dicyanide] were, in that order, 7000 nM and 126.8%.
Turning to `COc1cc(-c2ncccn2)ccc1NN=C(C#N)C#N` [Compound 43, (2-methoxy-4-(pyrimidin-2-yl)phenyl)carbonohydrazonoyl dicyanide], at tau protein, inhibition was half-maximal at 1840 nM (IC50). For the same molecule, the “Cell survival rate (% @ 10 μM)” value with Tau-BiFC cells is listed as 112.3%.
Take `N#CC(C#N)=NNc1ccc(-c2cnc3nccn3c2)cc1` [Compound 51, (4-(imidazo[1,2-a]pyrimidin-6-yl)phenyl)carbonohydrazonoyl dicyanide]: at tau protein, the IC50 was 7420 nM. For the same molecule, the “Cell survival rate (% @ 10 μM)” value with Tau-BiFC cells is 84.2%.
The matching figures for `N#CC(C#N)=NNc1ccc(-c2cnc3ccccc3n2)cc1` [Compound 52, (4-(quinoxalin-2-yl)phenyl)carbonohydrazonoyl dicyanide]: 1400 nM and 139.6%.
For the molecule `N#CC(C#N)=NNc1ccc(-c2ccc3nccn3c2)cc1` [Compound 53, (4-(imidazo[1,2-a]pyridin-6-yl)phenyl)carbonohydrazonoyl dicyanide], at tau protein, the IC50 worked out at 1300 nM. The “Cell survival rate (% @ 10 μM)” value in the data set on Tau-BiFC cells was found to be 158.2%.
Turning to `Cn1cc2cc(-c3ccc(NN=C(C#N)C#N)cc3)ccc2n1` [Compound 56, (4-(2-methyl-2H-indazol-5-yl)phenyl)carbonohydrazonoyl dicyanide], in data set [1] (SD rat plasma, IV 2 mg/kg), the AUCall was 17481.28 hr, ng/mL; the highest level (Cmax) was 9140 ng/mL; the Tmax is 0.12 h; the clearance worked out at 1.85 mL/min/kg. Also, the half-life in data set [1] (SD rat plasma, IV 2 mg/kg) was 1.57 h. In data set [1] (SD rat plasma, PO 10 mg/kg), the AUCall is 77995.11 hr, ng/mL; the Cmax stood at 11400 ng/mL; the Tmax was found to be 1.5 h; the half-life was 3.21 h. Besides, in data set [1] (SD rat, PO 10 mg/kg versus IV), the F was determined as 89.2%.
In the case of `N#CC(C#N)=NNc1ccc(-c2ccc3[nH]ccc3c2)cc1` [Compound 58, (4-(1H-indol-5-yl)phenyl)carbonohydrazonoyl dicyanide], on tau protein, half-maximal inhibition (IC50) was put at 1200 nM. The “Cell survival rate (% @ 10 μM)” value with Tau-BiFC cells was determined as 113.8%.
For the molecule `COc1cccc2sc(NN=C(C#N)C#N)nc12` [Compound 59, (4-methoxybenzo[d]thiazol-2-yl)carbonohydrazonoyl dicyanide], on tau protein, the IC50 is 500 nM. Besides, the “Cell survival rate (% @ 10 μM)” value in the data set on Tau-BiFC cells came to 120.3%.
`N#CC(C#N)=NNc1cnc2ccccc2c1` [Compound 64, quinolin-3-ylcarbonohydrazonoyl dicyanide] came in with an IC50 against tau protein of 190 nM. Moreover, the “Cell survival rate (% @ 10 μM)” value in the data set with Tau-BiFC cells was 112.5%.
In turn, `Cn1cc2ccc(NN=C(C#N)C#N)cc2n1` [Compound 65, (2-methyl-2H-indazol-6-yl)carbonohydrazonoyl dicyanide] gave an IC50 against tau protein of 72 nM. For the same molecule, in the data set on Tau-BiFC cells, the “Cell survival rate (% @ 10 μM)” value was 103.3%.
With `Cn1ncc2cc(NN=C(C#N)C#N)ccc21` [Compound 66, (1-methyl-1H-indazol-5-yl)carbonohydrazonoyl dicyanide], inhibition at tau protein was half-maximal at 12 nM (IC50). For the same molecule, the “Cell survival rate (% @ 10 μM)” value with Tau-BiFC cells was found to be 96.8%.
The like results for `Cn1ccc2cc(NN=C(C#N)C#N)ccc21` [Compound 68, (1-methyl-1H-indol-5-yl)carbonohydrazonoyl dicyanide] were, in that order, 60 nM and 177.2%.
On to `N#CC(C#N)=NNc1ccc2[nH]ccc2c1` [Compound 71, (1H-indol-5-yl)carbonohydrazonoyl dicyanide], for which the IC50 against tau protein amounted to 860 nM. Besides, the “Cell survival rate (% @ 10 μM)” value in the data set with Tau-BiFC cells came out at 116.4%.
In turn, `Cc1n[nH]c2cc(NN=C(C#N)C#N)ccc12` [Compound 73, (3-methyl-1H-indazol-6-yl)carbonohydrazonoyl dicyanide] displayed an IC50 at tau protein of 1100 nM. Besides, the “Cell survival rate (% @ 10 μM)” value in the data set on Tau-BiFC cells is listed as 138.5%.
As for `Cn1ccc2cc(NN=C(C#N)C#N)cnc21` [Compound 76, (1-methyl-1H-pyrrolo[2,3-b]pyridin-5-yl)carbonohydrazonoyl dicyanide], half-maximal inhibition against tau protein (IC50) was put at 40 nM. For the same molecule, in the data set with Tau-BiFC cells, the “Cell survival rate (% @ 10 μM)” value worked out at 195.8%.
`Cc1c[nH]c2ncc(NN=C(C#N)C#N)cc12` [Compound 82, (3-methyl-1H-pyrrolo[2,3-b]pyridin-5-yl)carbonohydrazonoyl dicyanide]: the IC50 at tau protein worked out at 430 nM. Moreover, the “Cell survival rate (% @ 10 μM)” value with Tau-BiFC cells turned out to be 120.2%.
On tau protein, `N#CC(C#N)=NNc1ccc2nc(NC(=O)c3cncnc3)sc2c1` [Compound 94, (2-(pyrimidine-5-carboxamido)benzo[d]thiazol-6-yl)carbonohydrazonoyl dicyanide] yielded an IC50 of 2700 nM. For the same molecule, the “Cell survival rate (% @ 10 μM)” value with Tau-BiFC cells came to 95.3%.
The like results for `Cc1ncc(C(=O)Nc2nc3ccc(NN=C(C#N)C#N)cc3s2)cn1` [Compound 95, (2-(2-methylpyrimidine-5-carboxamido)benzo[d]thiazol-6-yl)carbonohydrazonoyl dicyanide] were, in that order, 800 nM and 100.8%.
`Cc1ncncc1C(=O)Nc1nc2ccc(NN=C(C#N)C#N)cc2s1` [Compound 96, (2-(4-methylpyrimidine-5-carboxamido)benzo[d]thiazol-6-yl)carbonohydrazonoyl dicyanide]: the IC50 at tau protein was found to be 400 nM. Besides, the “Cell survival rate (% @ 10 μM)” value with Tau-BiFC cells is reported as 106.1%.
The like results for `C#Cc1cnc(-c2ccc(NN=C(C#N)C#N)cc2)nc1` [Compound 149, (4-(5-ethynylpyrimidin-2-yl)phenyl)carbohydrazonoyl dicyanide] were, in that order, 100 nM and 113.9%.
The like results for “(2-(pyrazine-2-carboxamido)benzo[d]thiazol-5-yl)carbonohydrazonoyl dicyanide [Compound 99]” were, in that order, 100 nM and 113.1%.

The record behind these values is patent US12590071B2, “Hydrazone derivative in which terminal amine group is substituted with aryl group or heteroaryl group, and use thereof” (KOREA INSTITUTE OF SCIENCE AND TECHNOLOGY, priority 2018, dated 2026).
